Laboratory results reported in patent EP1389461A1, “Pyrimidones with antiviral properties” (Axxima Pharmaceuticals Aktiengesellschaft, priority 2002, dated 2004).

Test system: HCMV
Experiment: HCMV replication in vitro
Assay type: cell-based, human cytomegalovirus (HCMV)
Conditions: Human betaherpesvirus 5

Nc1nc(O)c2ncn(COC(CO)CO)c2n1 [ganciclovir] showed an IC50 of 3 to 4 µM.
